From PMC3914891, “Pentacyclic Nitrofurans with In Vivo Efficacy and Activity against Nonreplicating Mycobacterium tuberculosis” (PLoS ONE, 2014)
≈ marks a conversion by molar mass, not a printed value. Where two headings read alike, the source gives them in different places. Marks after values point to notes of the source that are not given here.

Tests used:
M. tuberculosis = experiment: MIC determination, microbroth dilution, M. tuberculosis; assay type: cell-based, Mycobacterium tuberculosis
Vero cells [1] = conditions: cited from earlier work
[2] = mouse plasma; ref footnote g, values reported in reference (number not given); cited from earlier work
Vero cells [3] = experiment: In vitro cytotoxicity against Vero cells
[4] = test system: Staphylococcus aureus (ATCC 29213); experiment: MIC, spectrum of activity: S.a.; assay type: cell-based; conditions: ATCC29213, read-out: Minimum Inhibitory Concentration, S.a
[5] = test system: Staphylococcus aureus (NRS70); experiment: MIC, spectrum of activity: MRSA; assay type: cell-based; conditions: read-out: Minimum Inhibitory Concentration, MRSA
[6] = test system: Bacillus subtilis (ATCC 23857); experiment: MIC, spectrum of activity: B.s.; assay type: cell-based; conditions: ATCC23857, read-out: Minimum Inhibitory Concentration, B.s.
[7] = test system: Streptococcus pyogenes (ATCC 700294); experiment: MIC, spectrum of activity: S.py; assay type: cell-based; conditions: ATCC700294, read-out: Minimum Inhibitory Concentration, S. Py.
[8] = test system: Streptococcus pneumoniae (R6); experiment: MIC, spectrum of activity: S.pn; assay type: cell-based; conditions: read-out: Minimum Inhibitory Concentration, S. Pn.
[9] = test system: Enterococcus faecalis (ATCC 33186); experiment: MIC, spectrum of activity: E.f.; assay type: cell-based; conditions: ATCC33186, read-out: Minimum Inhibitory Concentration, E.f.
[10] = test system: Bacillus anthracis sterne 34F2; experiment: microbe, parasite or virus in culture; assay type: cell-based; conditions: STERNE34F2, read-out: Minimum Inhibitory Concentration, B.a.
[11] = test system: Burkholderia cepacia (ATCC 25416); experiment: MIC, spectrum of activity: B.c.; assay type: cell-based; conditions: ATCC25416, read-out: Minimum Inhibitory Concentration, B.c.
[12] = test system: Stenotrophomonas maltophilia (ATCC 13637); experiment: MIC, spectrum of activity: S.m.; assay type: cell-based; conditions: ATCC13637, read-out: Minimum Inhibitory Concentration, S.m.
[13] = test system: Escherichia coli (ATCC 700926); experiment: MIC, spectrum of activity: E.c.; assay type: cell-based; conditions: ATCC700926, read-out: Minimum Inhibitory Concentration, E.c.
E. coli K12 ∆tolC = assay type: cell-based; conditions: E. coli K12 ∆tolC (efflux pump deficient)
[14] = male, Sprague-Dawley, rat, in vivo
[15] = rats; IV 10 mg/kg and oral 100 mg/kg
in vivo = conditions: male, Sprague-Dawley, rat
physchem = conditions: pH 7.4, aqueous buffer
in vitro [16] = conditions: mouse, microsomes
in vitro [17] = conditions: mouse, plasma
[18] = In vitro cytotoxicity against Vero cells; conditions: African green monkey, Vero cells (kidney epithelial cells, ATCC CCL-81)
[19] = test system: M. bovis strain BCG Pasteur; assay type: cell-based
[20] = test system: M. tuberculosis strain H37Rv; experiment: Checkerboard synergy assay; assay type: cell-based, Mycobacterium tuberculosis; conditions: for MIC: Mycobacterium tuberculosis, 168 h, read-out: MIC Alone
[21] = test system: hypoxic M. tuberculosis strain H37Rv; experiment: NRP bacteria under hypoxia (rapid anaerobic dormancy model); assay type: cell-based, Mycobacterium tuberculosis
[22] = test system: M. tuberculosis strain H37Rv (mid-log and nutrient-starved); experiment: Nutrient starvation model of nonreplicating persisters; assay type: cell-based, Mycobacterium tuberculosis
M. tuberculosis Erdman = conditions: mouse, in vivo, po, 25 mg/kg
[23] = test system: M. abscessus (ATCC 19977); experiment: MIC, non-tuberculosis mycobacteria: M. abscessus; assay type: cell-based; conditions: Mycobacteroides abscessus, ATCC19977, 72 h, read-out: Minimum Inhibitory Concentration, M. abscessus
M. avium (ATCC 25291) = experiment: MIC, non-tuberculosis mycobacteria: M. avium; assay type: cell-based; conditions: Mycobacterium avium, ATCC25291, 168 h; broth dilution, visual inspection, 7 days; read-out: Minimum Inhibitory Concentration, M. avium
M. kansasii (ATCC 12478) = experiment: MIC, non-tuberculosis mycobacteria: M. kansasii; assay type: cell-based; conditions: Mycobacterium kansasii, ATCC12478, 168 h; broth dilution, visual inspection, 7 days; read-out: Minimum Inhibitory Concentration, M. kansasii
M. fortuitum (ATCC 6841) = experiment: MIC, non-tuberculosis mycobacteria: M. fortuitum; assay type: cell-based; conditions: Mycolicibacterium fortuitum, ATCC6841, 72 h; broth dilution, visual inspection, 3 days; read-out: Minimum Inhibitory Concentration, M. fortuitum
M. ulcerans (ATCC 35840) = experiment: MIC by agar proportion method: M. ulcerans; assay type: cell-based; conditions: Mycobacterium ulcerans, ATCC35840, 672 h, read-out: Minimum Inhibitory Concentration, M. ulcerans
M. tuberculosis H37Rv = experiment: Minimum bactericidal concentration determination; assay type: cell-based, Mycobacterium tuberculosis
H37Rv-wt = experiment: microbe, parasite or virus in culture; assay type: cell-based, M. tuberculosis; conditions: Mycobacterium tuberculosis
[24] = Mycobacterium tuberculosis, 168 h; read-out: M. tb. MIC

## O=[N+]([O-])c1ccc(C2=NOC(c3ccc(N4CCOCC4)cc3)C2)o1 (stereo not drawn) [Compound 2]
M. tuberculosis; Mycobacterium tuberculosis, 168 h, read-out: M. tb. MIC
  MIC: 0.006 µg/mL
other
  Solubility (pH 7.4): 9.9 µg/mL
Vero cells [1]
  Cytotoxicity IC50: 2.9 ^g µg/mL
[2]
  Plasma Protein binding: 96.4 ^g %
Vero cells [3]
  Selective Index (Cytox/MIC): 483

## O=[N+]([O-])c1ccc(C2=NOC(c3ccc(N4CCC(Oc5ccc(OC(F)(F)F)cc5)CC4)c(F)c3)C2)o1 (stereo not drawn) [Compound 9c, 5-(3-Fluoro-4-(4-(4-(trifluoromethoxy)phenoxy)piperidin-1-yl)phenyl)-3-(5-nitrofuran-2-yl)-4,5-dihydroisoxazole]
M. tuberculosis; [24]
  MIC: 0.001 µg/mL
[4]
  MIC: > 200 µg/mL
[5]
  MIC: > 200 µg/mL
[6]
  MIC: 200 µg/mL (≈ 374 µM)
[7]
  MIC: 200 µg/mL (≈ 374 µM)
[8]
  MIC: > 200 µg/mL
[9]
  MIC: > 200 µg/mL
[10]
  MIC: 12.5 µg/mL (≈ 23.3 µM)
[11]
  MIC: > 200 µg/mL
[12]
  MIC: > 200 µg/mL
[13]
  MIC: > 200 µg/mL
E. coli K12 ∆tolC
  Minimum Inhibitory Concentration, E.c. ΔtolC: >200 µg/mL
[14]; iv, 10 mg/kg
  fe (fraction excreted unchanged in urine): 0.02 (0.00) %
[14]; po, 100 mg/kg
  Cmin,24 h: 0.02 (0.02) mg/L
[15]
  Toxicity by intravenous and oral dosing: Central nervous system toxicity (seizures)
In vivo; iv, 10 mg/kg
  Vd: 1.69 L/kg
  clearance: 6.83 mL/min/kg
  half-life: 5.6 h
In vivo; po, 100 mg/kg
  AUC(0-inf): 1610 ng·h/mL
  Cmax: 150 ng/mL
  bioavailability: 0.83%
physchem
  solubility: 1.9 µg/mL (≈ 3.55 µM)
In vitro [16]
  half-life: 7.04 h
In vitro [17]
  fraction unbound: 0.024
[18]
  IC50: 21.4 µg/mL (≈ 40 µM)
Vero cells [3]
  Selective Index (Cytox/MIC): 21400

## NNC(=O)c1ccncc1 [Isoniazid]
[19]
  PAE: 71.8 h
[20]
  FICI with 9a: 0.52–2.00
  MIC in presence of 9a: 0.01 to 0.02 µg/mL
  Type of Interaction: Indifference (key: Synergy: synergy (FICI ≤0.5); Indifference: indifference (FICI >0.5–4.0); Antagonism: antagonism (FICI >4.0))
[20]; H37RV
  MIC: 0.02 µg/mL
[21]
  % Growth vs. Control: 29.1–49.1%
[22]
  fold less active against nutrient starved bacteria than against actively growing culture: 7 fold
  reduction in viability (killing) of actively growing culture: > 95%
M. tuberculosis Erdman
  Log10CFU (SEM), lungs: 4.60 (0.21) Log10CFU
  Log10CFU (SEM), spleen: 2.61 (0.09) Log10CFU

## O=[N+]([O-])c1cn2c(n1)OC[C@@H](OCc1ccc(OC(F)(F)F)cc1)C2 [PA-824]
M. tuberculosis; [24]
  MIC: 0.39 µg/mL
M. tuberculosis; Mycobacterium tuberculosis; M. tuberculosis; […]; read-out: MIC
  MIC: > 1 µM
[23]
  MIC: > 200 µg/mL
M. avium (ATCC 25291)
  MIC: > 200 µg/mL
M. kansasii (ATCC 12478)
  MIC: 3.1 to 12.5 µg/mL (≈ 8.63 to 34.8 µM)
M. fortuitum (ATCC 6841)
  MIC: > 200 µg/mL
M. ulcerans (ATCC 35840); agar proportion method, 4 weeks
  MIC: 3.1 to 25 µg/mL (≈ 8.63 to 69.6 µM)
[20]
  MIC in presence of 9a: 0.01 to 0.02 µg/mL
[20]; checkerboard, H37Rv, 7 days
  MIC: 0.2 to 0.8 µg/mL
[20]; checkerboard, H37Rv
  fold decrease of MIC in the presence of 9a: ~10 fold
[20]; interaction of the treatment with 9a
  Type of Interaction: Synergy (synergy (FICI ≤0.5))
M. tuberculosis H37Rv
  MBC: >6
M. tuberculosis H37Rv; cidal or static from MBC versus MIC
  Classification: Static (static (MBC/MIC >4))
[21]
  % Growth vs. Control: <0.1%
[21]; 10 µg/mL, NRP-2 bacilli
  killing of hypoxic bacilli: > 99.9%
H37Rv-wt
  MIC: 0.1 µg/mL (≈ 0.278 µM)
[4]
  MIC: > 200 µg/mL
[5]
  MIC: > 200 µg/mL
[6]
  MIC: 200 µg/mL (≈ 557 µM)
[7]
  MIC: > 200 µg/mL
[8]
  MIC: > 200 µg/mL
[9]
  MIC: > 200 µg/mL
[10]
  MIC: > 200 µg/mL
[11]
  MIC: > 200 µg/mL
[12]
  MIC: > 200 µg/mL
[13]
  MIC: > 200 µg/mL
E. coli K12 ∆tolC
  Minimum Inhibitory Concentration, E.c. ΔtolC: >200 µg/mL
physchem
  solubility: 8.5 µg/mL (≈ 23.7 µM)
In vitro [16]
  half-life: 8.12 h
In vitro [17]
  fraction unbound: 0.071
[18]
  IC50: 69.4 µg/mL (≈ 193 µM)
Vero cells [3]
  Selective Index (Cytox/MIC): 178

## CO[C@H]1/C=C/O[C@@]2(C)Oc3c(C)c(O)c4c(O)c(c(/C=N/N5CCN(C)CC5)c(O)c4c3C2=O)NC(=O)/C(C)=C\C=C\[C@H](C)[C@H](O)[C@@H](C)[C@@H](O)[C@@H](C)[C@H](OC(C)=O)[C@@H]1C [Rifampin]
[23]; broth dilution, visual inspection, 3 days, range of at least two independent experiments
  MIC: 50 µg/mL (≈ 60.8 µM)
M. avium (ATCC 25291)
  MIC: 6.3 µg/mL (≈ 7.66 µM)
M. kansasii (ATCC 12478)
  MIC: 0.39 µg/mL (≈ 0.474 µM)
M. fortuitum (ATCC 6841)
  MIC: 1.56 µg/mL (≈ 1.9 µM)
M. ulcerans (ATCC 35840)
  MIC: 0.1 to 0.4 µg/mL (≈ 0.122 to 0.486 µM)
[20]
  FICI with 9a: 0.38
  MIC in presence of 9a: 0.003 µg/mL
  Type of Interaction: Synergy (key: Synergy: synergy (FICI ≤0.5); Indifference: indifference (FICI >0.5–4.0); Antagonism: antagonism (FICI >4.0))
  fold decrease of MIC in the presence of 9a: ~10 fold
[20]; H37RV
  MIC: 0.02 to 0.05 µg/mL
[21]
  % Growth vs. Control: <0.1%
